According to patent US12209081B2 (Katholieke Universiteit Leuven, priority 2020, dated 2025):

Molecular target: mouse TRPM3α2 (mTRPM3) ion channel (Mus musculus (Mouse), UniProt J9SQF3)
Experiment: TRPM3 ion channel driven Ca2+ uptake, Fluo-4 AM assay, mTRPM3alpha2 overexpressing flip-in HEK293 cells stimulated with pregnenolone sulfate
Format: cell-based
Conditions: PS 50 μM, cpds 300-399
Method in brief: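 Flip-in HEK293 cells loaded with Fluo-4 AM were added to plates holding compound plus 50 μM pregnenolone sulfate in Ca2+-containing Krebs buffer. Fluorescence (ex 485/em 535 nm) read directly after cell addition; % inhibition relative to PS-stimulated vehicle and positive-control inhibitor.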

Sequence of mouse TRPM3α2 (mTRPM3) ion channel (J9SQF3 other isoform, or with tags, fused parts or gaps): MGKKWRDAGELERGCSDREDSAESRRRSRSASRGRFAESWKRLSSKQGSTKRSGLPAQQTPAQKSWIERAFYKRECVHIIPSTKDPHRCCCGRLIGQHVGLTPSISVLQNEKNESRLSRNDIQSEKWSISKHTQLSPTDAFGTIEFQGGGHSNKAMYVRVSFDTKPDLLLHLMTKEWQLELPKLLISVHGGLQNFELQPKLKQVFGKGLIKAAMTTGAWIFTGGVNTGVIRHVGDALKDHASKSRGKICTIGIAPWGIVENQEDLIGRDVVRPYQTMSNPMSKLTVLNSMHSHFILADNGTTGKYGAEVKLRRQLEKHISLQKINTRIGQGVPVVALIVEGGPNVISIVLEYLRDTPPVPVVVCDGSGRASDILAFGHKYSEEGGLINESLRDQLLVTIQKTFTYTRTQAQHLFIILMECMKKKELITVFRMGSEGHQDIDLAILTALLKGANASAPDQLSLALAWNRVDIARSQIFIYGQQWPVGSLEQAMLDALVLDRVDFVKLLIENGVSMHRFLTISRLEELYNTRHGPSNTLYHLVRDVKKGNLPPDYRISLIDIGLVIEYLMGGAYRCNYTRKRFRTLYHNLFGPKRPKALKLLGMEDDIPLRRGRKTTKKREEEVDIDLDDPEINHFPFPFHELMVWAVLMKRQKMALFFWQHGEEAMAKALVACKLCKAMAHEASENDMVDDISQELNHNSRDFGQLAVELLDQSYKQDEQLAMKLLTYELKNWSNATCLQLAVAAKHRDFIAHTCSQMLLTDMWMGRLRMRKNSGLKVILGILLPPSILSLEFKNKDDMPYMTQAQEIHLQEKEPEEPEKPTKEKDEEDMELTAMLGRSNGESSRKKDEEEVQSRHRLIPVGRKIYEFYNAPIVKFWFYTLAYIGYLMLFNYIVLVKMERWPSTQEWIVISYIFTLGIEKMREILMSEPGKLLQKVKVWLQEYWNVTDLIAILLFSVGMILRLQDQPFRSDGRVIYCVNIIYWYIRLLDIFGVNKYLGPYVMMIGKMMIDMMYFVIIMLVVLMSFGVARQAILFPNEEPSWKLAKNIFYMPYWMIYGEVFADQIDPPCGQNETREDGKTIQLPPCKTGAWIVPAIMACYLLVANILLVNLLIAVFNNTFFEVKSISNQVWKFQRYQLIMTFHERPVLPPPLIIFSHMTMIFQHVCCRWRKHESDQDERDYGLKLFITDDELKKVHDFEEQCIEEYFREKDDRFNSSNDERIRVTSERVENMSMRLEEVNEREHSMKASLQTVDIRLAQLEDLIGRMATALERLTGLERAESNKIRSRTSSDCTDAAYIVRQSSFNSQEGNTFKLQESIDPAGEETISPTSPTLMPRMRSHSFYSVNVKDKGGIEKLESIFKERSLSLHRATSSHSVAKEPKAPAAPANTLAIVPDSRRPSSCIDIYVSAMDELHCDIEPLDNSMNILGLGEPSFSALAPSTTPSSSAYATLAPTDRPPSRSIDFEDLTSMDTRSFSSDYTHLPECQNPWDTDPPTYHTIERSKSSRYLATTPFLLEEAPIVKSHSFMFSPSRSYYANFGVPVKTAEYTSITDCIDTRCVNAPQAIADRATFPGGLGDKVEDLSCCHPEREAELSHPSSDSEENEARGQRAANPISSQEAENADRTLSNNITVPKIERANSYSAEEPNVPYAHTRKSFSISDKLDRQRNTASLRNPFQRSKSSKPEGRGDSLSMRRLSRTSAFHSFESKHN

| SMILES | IC50 [µM] |
| --- | --- |
| Cc1oc2ccc(OCc3c(F)cnn3C)cc2c1C(=O)N[C@@H](CO)C(N)=O [compound 302, (S)-N-(1-amino-3-hydroxy-1-oxopropan-2-yl)-5-((4-fluoro-1-methyl-1H-pyrazol-5-yl)methoxy) -2-methylbenzofuran-3-carboxamide] | < 1 |
| COC[C@H](NC(=O)c1c(C)oc2ccc(OCc3cnc(C)s3)cc12)C(N)=O [compound 303, (S)-N-(1-amino-3-methoxy-1-oxopropan-2-yl)-2-methyl-5-((2-methylthiazol-5-yl)methoxy)benzofuran-3-carboxamide] | < 1 |
| Cc1ncsc1COc1ccc2oc(C)c(C(=O)N[C@H](C(N)=O)C(C)C)c2c1 [compound 304, (S)-N-(1-amino-3-methyl-1-oxobutan-2-yl)-2-methyl-5-((4-methylthiazol-5-yl)methoxy)benzofuran-3-carboxamide] | < 1 |
| CNC(=O)[C@H](CO)NC(=O)c1c(C)oc2ccc(OCc3cnc(C)s3)cc12 [compound 305, (S)-N-(3-hydroxy-1-(methylamino)-1-oxopropan-2-yl)-2-methyl-5-((2-methylthiazol-5-yl)methoxy)benzofuran-3-carboxamide] | < 1 |
| CNC(=O)[C@H](CO)NC(=O)c1c(C)oc2ccc(OCc3scnc3C)cc12 [compound 306, (S)-N-(3-hydroxy-1-(methylamino)-1-oxopropan-2-yl)-2-methyl-5-((4-methylthiazol-5-yl)methoxy)benzofuran-3-carboxamide] | < 1 |
| O=C(NC1(CO)CCOCC1)c1c(C(F)F)oc2ccc(OCc3cccnc3O)cc12 [compound 311, 2-(difluoromethyl)-N-(4-(hydroxymethyl)tetrahydro-2H-pyran-4-yl)-5-((2-oxo-1,2-dihydropyridin-3-yl)methoxy)benzofuran-3-carboxamide] | < 1 |
| Cc1ncsc1COc1ccc2oc(C3CC3)c(C(=O)NC3(CO)CCOCC3)c2c1 [compound 314, 2-cyclopropyl-N-(4-(hydroxymethyl)tetrahydro-2H-pyran-4-yl)-5-((4-methylthiazol-5-yl)methoxy)benzofuran-3-carboxamide] | < 1 |
| CNC(=O)C1(NC(=O)c2c(C)oc3ccc(OCc4cnc(C)s4)cc23)CCC1 [compound 318, 2-methyl-N-(1-(methylcarbamoyl)cyclobutyl)-5-((2-methylthiazol-5-yl)methoxy)benzofuran-3-carboxamide] | < 1 |
| CNC(=O)C1(NC(=O)c2c(C)oc3ccc(OCc4scnc4C)cc23)CCC1 [compound 319, 2-methyl-N-(1-(methylcarbamoyl)cyclobutyl)-5-((4-methylthiazol-5-yl)methoxy)benzofuran-3-carboxamide] | < 1 |
| CNC(=O)C1(NC(=O)c2c(C)oc3ccc(OCc4ccccn4)cc23)CCC1 [compound 320, 2-methyl-N-(1-(methylcarbamoyl)cyclobutyl)-5-(pyridin-2-ylmethoxy)benzofuran-3-carboxamide] | < 1 |
| CNC(=O)CNC(=O)c1c(C)oc2ccc(OCc3scnc3C)cc12 [compound 321, 2-methyl-N-(2-(methylamino)-2-oxoethyl)-5-((4-methylthiazol-5-yl)methoxy)benzofuran-3-carboxamide] | < 1 |
| Cc1ncsc1COc1ccc2oc(C)c(C(=O)NCCNS(C)(=O)=O)c2c1 [compound 322, 2-methyl-N-(2-(methylsulfonamido)ethyl)-5-((4-methylthiazol-5-yl)methoxy)benzofuran-3-carboxamide] | < 1 |
| Cc1ncsc1COc1ccc2oc(C)c(C(=O)NCCS(C)(=O)=O)c2c1 [compound 323, 2-methyl-N-(2-(methylsulfonyl)ethyl)-5-((4-methylthiazol-5-yl)methoxy)benzofuran-3-carboxamide] | < 1 |
| CNC(=O)C1(NC(=O)c2c(C)oc3ccc(OCc4scnc4C)cc23)COC1 [compound 324, 2-methyl-N-(3-(methylcarbamoyl)oxetan-3-yl)-5-((4-methylthiazol-5-yl)methoxy)benzofuran-3-carboxamide] | < 1 |
| Cc1oc2ccc(OCc3cccnc3C(N)=O)cc2c1C(=O)NC1(CO)CCOCC1 [compound 325] | 1 to 20 |
| Cc1ncsc1COc1ccc2oc(C)c(C(=O)NC3(CO)COC3)c2c1F [compound 328, 4-fluoro-N-(3-(hydroxymethyl)oxetan-3-yl)-2-methyl-5-((4-methylthiazol-5-yl)methoxy)benzofuran-3-carboxamide] | < 1 |
| COc1ncccc1COc1ccc2oc(C)c(C(=O)NC3(CO)CCOCC3)c2c1F [compound 330, 4-fluoro-N-(4-(hydroxymethyl)tetrahydro-2H-pyran-4-yl)-5-((2-methoxypyridin-3-yl)methoxy)-2-methylbenzofuran-3-carboxamide] | < 1 |
| Cc1oc2ccc(OCc3ccnn3CC(F)F)cc2c1C(=O)NC1(CO)CCOCC1 [compound 334, 5-((1-(2,2-difluoroethyl)-1H-pyrazol-5-yl)methoxy)-N-(4-(hydroxymethyl)tetrahydro-2H-pyran-4-yl)-2-methylbenzofuran-3-carboxamide] | < 1 |

| SMILES | IC50 [µM] |
| --- | --- |
| Cc1oc2ccc(OCc3cccnc3N3CCC3)cc2c1C(=O)NC1(CO)CCOCC1 [compound 337, 5-((2-(azetidin-1-yl)pyridin-3-yl)methoxy)-N-(4-(hydroxymethyl)tetrahydro-2H-pyran-4-yl)-2-methylbenzofuran-3-carboxamide] | < 1 |
| Cc1oc2ccc(OCc3cccnc3OC(F)F)cc2c1C(=O)NC1(CO)CCOCC1 [compound 339, 5-((2-(difluoromethoxy)pyridin-3-yl)methoxy)-N-(4-(hydroxymethyl)tetrahydro-2H-pyran-4-yl) -2-methylbenzofuran-3-carboxamide] | < 1 |
| Cc1oc2ccc(OCc3cccnc3C(F)F)cc2c1C(=O)NC1(CO)COC1 [compound 341, 5-((2-(difluoromethyl)pyridin-3-yl)methoxy)-N-(3-(hydroxymethyl)oxetan-3-yl)-2-methylbenzofuran-3-carboxamide] | < 1 |
| Cc1oc2ccc(OCc3cccnc3C(F)F)cc2c1C(=O)NC1(CO)CCOCC1 [compound 343, 5-((2-(difluoromethyl)pyridin-3-yl)methoxy)-N-(4-(hydroxymethyl)tetrahydro-2H-pyran-4-yl)-2-methylbenzofuran-3-carboxamide] | < 1 |
| Cc1oc2ccc(OCc3cccnc3N(C)C)cc2c1C(=O)NC1(CO)CCOCC1 [compound 344, 5-((2-(dimethylamino)pyridin-3-yl)methoxy)-N-(4-(hydroxymethyl)tetrahydro-2H-pyran-4-yl)-2-methylbenzofuran-3-carboxamide] | < 1 |
| Cc1nc(C)c(COc2ccc3oc(C)c(C(=O)NC4(CO)CCOCC4)c3c2)s1 [compound 345, 5-((2,4-dimethylthiazol-5-yl)methoxy)-N-(4-(hydroxymethyl)tetrahydro-2H-pyran-4-yl)-2-methylbenzofuran-3-carboxamide] | < 1 |
| Cc1oc2ccc(OCc3cccnc3N)cc2c1C(=O)NC1(CO)CCOCC1 [compound 346, 5-((2-aminopyridin-3-yl)methoxy)-N-(4-(hydroxymethyl)tetrahydro-2H-pyran-4-yl)-2-methylbenzofuran-3-carboxamide] | < 1 |
| Cc1oc2ccc(OCc3ncccc3F)cc2c1C(=O)NC1(CO)CCOCC1 [compound 352, 5-((3-fluoropyridin-2-yl)methoxy)-N-(4-(hydroxymethyl)tetrahydro-2H-pyran-4-yl)-2-methylbenzofuran-3-carboxamide] | < 1 |
| Cc1oc2ccc(OCc3c(F)cnn3C)cc2c1C(=O)NC1(CO)CCOCC1 [compound 357, 5-((4-fluoro-1-methyl-1H-pyrazol-5-yl)methoxy)-N-(4-(hydroxymethyl)tetrahydro-2H-pyran-4-yl)-2-methylbenzofuran-3-carboxamide] | < 1 |
| Cc1oc2ccc(OCc3ccc(OCCO)cn3)cc2c1C(=O)NC1(CO)CCOCC1 [compound 358, 5-((5-(2-hydroxyethoxy)pyridin-2-yl)methoxy)-N-(4-(hydroxymethyl)tetrahydro-2H-pyran-4-yl) -2-methylbenzofuran-3-carboxamide] | > 20 |
| Cc1oc2ccc(OCc3ccc(F)cn3)cc2c1C(=O)NC1(CO)CCOCC1 [compound 359, 5-((5-fluoropyridin-2-yl)methoxy)-N-(4-(hydroxymethyl)tetrahydro-2H-pyran-4-yl)-2-methylbenzofuran-3-carboxamide] | < 1 |
| Cc1ncsc1COc1cc2c(C(=O)NC3(CO)CC3)c(C)oc2cc1F [compound 361, 6-fluoro-N-(1-(hydroxymethyl)cyclopropyl)-2-methyl-5-((4-methylthiazol-5-yl)methoxy)benzofuran-3-carboxamide] | < 1 |
| Cc1ncsc1COc1cc2c(C(=O)NC3(CO)COC3)c(C)oc2cc1F [compound 362, 6-fluoro-N-(3-(hydroxymethyl)oxetan-3-yl)-2-methyl-5-((4-methylthiazol-5-yl)methoxy)benzofuran-3-carboxamide] | < 1 |
| Cc1oc2cc(F)c(OCc3cccnc3O)cc2c1C(=O)NC1(CO)CCOCC1 [compound 363, 6-fluoro-N-(4-(hydroxymethyl)tetrahydro-2H-pyran-4-yl)-2-methyl-5-((2-oxo-1,2-dihydropyridin-3-yl)methoxy)benzofuran-3-carboxamide] | < 1 |
| COc1ncccc1COc1cc2c(C(=O)NC3(CO)CCOCC3)c(C)oc2cc1F [compound 364, 6-fluoro-N-(4-(hydroxymethyl)tetrahydro-2H-pyran-4-yl)-5-((2-methoxypyridin-3-yl)methoxy)-2-methylbenzofuran-3-carboxamide] | < 1 |
| Cc1ncsc1COc1cc(F)c2oc(C)c(C(=O)NC3(CO)COC3)c2c1 [compound 367, 7-fluoro-N-(3-(hydroxymethyl)oxetan-3-yl)-2-methyl-5-((4-methylthiazol-5-yl)methoxy)benzofuran-3-carboxamide] | < 1 |
| Cc1ncc(COc2ccc3oc(C)c(C(=O)NCC4(C#N)CC4)c3c2)s1 [compound 370, N-((1-cyanocyclopropyl)methyl)-2-methyl-5-((2-methylthiazol-5-yl)methoxy)benzofuran-3-carboxamide] | < 1 |
